Measurements taken from patent US20220192955A1, “AZOXYSTROBIN EFFICACY IN SCALP HEALTH” (The Procter & Gamble Company, priority 2020, published 2022).
Marks after values point to notes of the source that are not given here.

Legend:
[1] = test system: Malassezia furfur (CBS 7982); assay: In vitro evaluation of antifungal potency (MIC); type: cell-based
Experimental: Malassezia furfur (CBS 7982) is grown for approximately 24 hours in a 250 ml vent cap polycarbonate Erlenmeyer flask containing approximately 100 ml of mDixon medium and 5 ml of a fully grown M. furfur culture prepared using the same conditions as described. The cells are diluted by mixing 2.5 ml of the 24 hour-old culture per 50 ml of mDixon medium. A Versette robot (ThermoFisher Scientific) is used to transfer 292.5 μl of the dilute cells into each well of a Beckman 267007 polypropylene round bottom deep well plate. All compounds are sourced from Sigma Aldrich (St. Louis, Mo.) and prepared as 10 mg/ml in DMSO. A semipermeable aeraseal membrane is applied to the plate which is then be covered with water-soaked cotton batting. The samples are be shaken at 31° C. on a Heidolph Titramax 100 shaker at 1500 rpm for approximately 72 hours. The plates are shaken at 1250 rpm on an Eppendorf MixMate shaker to disperse the cells before transferring 200 μl to a Corning 3596 polystyrene plate. The samples are shaken again at 950 rpm on a MixMate shaker before the absorbance at 600 nm is read using a Molecular Devices SpectraMax plate reader.

S100A12 = assay: Scalp tape strip S100A12 protein; type: in vivo, human
Experimental: Subjects are enrolled in a double-blind, randomized study for all test groups and have Baseline and Week 3 measurements of scalp health taken for flaking, itch and scalp health endpoints. Subjects take home a test product(s) and are instructed on use of test products throughout the study. Test products are solubilized in a hydroalcoholic leave-on formulation. Azoxystrobin raw material is sourced from AK Scientific Inc. (Union City, Calif.) as >97% pure. Azoxystrobin scalp treatment is prepared from a slurry of azoxystrobin in ethanol that is formulated to 0.1% (w/v) in a base chassis of 50% ethanol, 0.35% Ultrez 21 (rheology modifier), 0.05% neutrol TE and water (q.s.). […] Biomarkers of scalp health, including biomarkers of inflammation, itch, oxidative stress and barrier integrity are assessed by non-invasive tape strip sampling of the scalp surface to determine therapeutic resolution. All biomarkers are analyzed from D-Squame® scalp tape samples that are collected from the scalp of subjects before and after scalp treatment with either azoxystrobin or vehicle (Baseline, and Week 3 respectively). These are extracted and analyzed according to published methods (International Journal of Dermatology 2011, 50, 102-113, incorporated by reference herein). […] S100A12 protein is analyzed to determine the impact of scalp treatment on active inflammatory disease. […]

human serum albumin = assay: Scalp tape strip barrier integrity: human serum albumin; type: in vivo
Experimental: Subjects are enrolled in a double-blind, randomized study for all test groups and have Baseline and Week 3 measurements of scalp health taken for flaking, itch and scalp health endpoints. Subjects take home a test product(s) and are instructed on use of test products throughout the study. Test products are solubilized in a hydroalcoholic leave-on formulation. […] Azoxystrobin scalp treatment is prepared from a slurry of azoxystrobin in ethanol that is formulated to 0.1% (w/v) in a base chassis of 50% ethanol, 0.35% Ultrez 21 (rheology modifier), 0.05% neutrol TE and water (q.s.). Vehicle scalp treatment is prepared similarly without the addition of azoxystrobin raw material. Subjects apply either azoxystrobin or vehicle scalp treatments daily for 3 weeks. […] All biomarkers are analyzed from D-Squame® scalp tape samples that are collected from the scalp of subjects before and after scalp treatment with either azoxystrobin or vehicle (Baseline, and Week 3 respectively). […] Data analysis is conducted by standard statistical methods and calculations. […] Biochemical markers of skin/scalp barrier integrity are analyzed to evaluate improvements on barrier health. […] Human skin analytes (keratin 1, keratin 10, human serum albumin) are simultaneously quantified using a 3-plea Human Skin Panel LINCOplex Kit (Millipore Corp.). Soluble protein is measured using the BCA™ Protein Assay Kit. […]

[2] = 0.1% leave-on daily, Week 3, scalp tape strips

CO/C=C(/C(=O)OC)c1ccccc1Oc1cc(Oc2ccccc2C#N)ncn1 [Azoxystrobin]
MIC value, Malassezia furfur ([1]; M. furfur CBS 7982, mDixon medium, 31° C., approximately 72 hours, absorbance at 600 nm): 0.39-0.49 ppm
times more potent than pyraclostrobin (MIC) ([1]; Malassezia furfur MIC ratio): 4 times
times more potent than zinc pyrithione (MIC) ([1]; Malassezia furfur MIC ratio): 8 times
S100A12 Results % Change from Baseline (S100A12; [2]): −71.2* %
reduction of S100A12 levels (S100A12; compared to a placebo control): 71%
Human Serum Albumin % Change from Baseline (human serum albumin; [2]): −54.1* %
reduction in human serum albumin (HSA) changed from a baseline (human serum albumin; 3 weeks of treatment): 54%
